{"source": "patent US20060051384A1", "about": "“Antiseptic compositions and methods of use” (priority 2004, published 2006)", "origin": "cited, not measured here", "test_system": "methicillin resistant staphylococcus aureus", "data": [{"substance": "povidone-iodine", "values": [{"measurement": "decrease of activity on addition of nasal secretions", "value": "80-90 wt %"}]}]}
